Results reported in EPA's ToxRefDB 2.

What was measured:
[1] = test system: rat; conditions: Multigenerational reproductive toxicity study, wistar, Oral, Gavage/Intubation, dose end: 2 generation
[2] = test system: rat; conditions: Prenatal developmental toxicity study, sprague dawley, Oral, Gavage/Intubation, dose end: 15 GD
[3] = test system: rabbit; conditions: Prenatal developmental toxicity study, dutch, Oral, Gavage/Intubation, dose end: 18 GD
[4] = test system: rat; conditions: Multigenerational reproductive toxicity study, sprague dawley, Oral, Feed, dose end: 2 generation
[5] = test system: rat; conditions: Multigenerational reproductive toxicity study, sprague dawley, Oral, Feed, dose end: 2 generation; remark: listed apart in the source
[6] = test system: rat; conditions: Prenatal developmental toxicity study, sprague dawley, Oral, Gavage/Intubation, dose end: 15 GD; remark: listed apart in the source
[7] = test system: rabbit; conditions: Prenatal developmental toxicity study, new zealand white, Oral, Gavage/Intubation, dose end: 18 GD
[8] = test system: rat; conditions: Prenatal developmental toxicity study, sprague dawley, Oral, Gavage/Intubation, dose end: 16 GD
[9] = test system: rat; conditions: Combined chronic toxicity/carcinogenicity, fischer, Oral, Feed, dose end: 2 year
[10] = test system: mouse; conditions: Prenatal developmental toxicity study, cd1, Oral, Gavage/Intubation, dose end: 17 GD
[11] = test system: mouse; conditions: Prenatal developmental toxicity study, cd1, Oral, Gavage/Intubation, dose end: 17 GD; remark: listed apart in the source
[12] = test system: mouse; conditions: Carcinogenicity, cd1, Oral, Feed, dose end: 78 week
[13] = test system: rat; conditions: Multigenerational reproductive toxicity study, wistar, Oral, Feed, dose end: 2 generation
[14] = test system: rat; conditions: Multigenerational reproductive toxicity study, sprague dawley, Oral, Gavage/Intubation, dose end: 2 generation
[15] = test system: rat; conditions: Prenatal developmental toxicity study, other, Oral, Gavage/Intubation, dose end: 19 GD
[16] = group: offspring, developmental / offspring survival late / lactation index / lactation index
[17] = group: parental, systemic / in life observation / body weight / body weight + systemic / in life observation / clinical signs / poor general condition
[18] = group: developmental, developmental / developmental malformation / bone / [other] + developmental / developmental malformation / bone / incomplete ossification + …
[19] = group: maternal, systemic / in life observation / body weight / body weight gain
[20] = group: developmental, systemic / in life observation / body weight / fetal weight
[21] = group: maternal, reproductive / reproductive performance / resorptions / resorptions + systemic / in life observation / body weight / body weight gain + …
[22] = group: offspring, systemic / organ weight / kidney / absolute + systemic / organ weight / liver / absolute + systemic / pathology gross / kidney / enlarged + …
[23] = group: parental, systemic / organ weight / liver / absolute + systemic / organ weight / kidney / absolute
[24] = group: reproductive, reproductive / offspring survival early / birth index / live birth index
[25] = group: offspring, developmental / offspring survival late / viability index / viability index + developmental / developmental landmark / anogenital distance (…
[26] = group: offspring, systemic / organ weight / kidney / absolute + systemic / organ weight / liver / absolute + systemic / pathology microscopic / liver / …
[27] = group: parental, systemic / in life observation / body weight / body weight + systemic / organ weight / kidney / absolute + systemic / organ weight / liver…
[28] = group: parental, systemic / organ weight / liver / absolute + systemic / pathology microscopic / liver / hypertrophy + systemic / organ weight / kidney / …
[29] = group: developmental, developmental / developmental malformation / bone / incomplete ossification + developmental / developmental malformation / bone / …
[30] = group: maternal, systemic / in life observation / body weight / body weight gain + systemic / in life observation / food consumption / food consumption
[31] = group: developmental, developmental / developmental malformation / bone / absent + developmental / developmental malformation / bone / full supernumerary
[32] = group: maternal, systemic / in life observation / clinical signs / respiration (dyspnea)
[33] = group: maternal, systemic / in life observation / food consumption / food consumption
[34] = group: maternal, systemic / in life observation / food consumption / food consumption + systemic / in life observation / body weight / body weight
[35] = group: cholinesterase, cholinesterase / cholinesterase / cholinesterase / erythrocyte cholinesterase (che)
[36] = group: systemic, systemic / pathology microscopic / stomach / mineralization + systemic / in life observation / body weight / body weight + systemic / in …
[37] = group: maternal, reproductive / reproductive performance / postimplantation loss / postimplantation loss + systemic / in life observation / body weight / …
[38] = group: developmental, developmental / developmental malformation / bone / supernumerary + systemic / in life observation / body weight / fetal weight
[39] = group: maternal, systemic / in life observation / body weight / body weight + systemic / in life observation / body weight / body weight gain + systemic / …
[40] = group: cholinesterase, cholinesterase / cholinesterase / cholinesterase / brain cholinesterase (che) + cholinesterase / cholinesterase / cholinesterase / …
[41] = group: systemic, systemic / in life observation / body weight / body weight + systemic / in life observation / body weight / body weight gain + systemic / in…
[42] = group: offspring, developmental / developmental landmark / preputial separation / preputial separation + systemic / in life observation / body weight / …
[43] = group: parental, systemic / pathology gross / eye / opacity + systemic / pathology microscopic / eye / inflammation + systemic / pathology microscopic / eye…
[44] = group: reproductive, reproductive / reproductive performance / estrous cycle / abnormal + reproductive / reproductive performance / estrous cycle / corpora lutea
[45] = group: offspring, developmental / offspring survival late / viability index / viability index + systemic / in life observation / body weight / offspring (pup…
[46] = group: parental, systemic / pathology microscopic / liver / hypertrophy + systemic / pathology microscopic / kidney / regeneration + systemic / organ weight…
[47] = group: parental, systemic / pathology microscopic / liver / hypertrophy + systemic / pathology microscopic / kidney / regeneration + systemic / pathology …
[48] = group: developmental, developmental / developmental malformation / bone / [other] + developmental / developmental malformation / bone / bipartite ossification + …
[49] = group: maternal, systemic / in life observation / body weight / body weight gain + systemic / in life observation / food consumption / food efficiency

N#Cc1ccc(CC(=NNC(=O)Nc2ccc(OC(F)(F)F)cc2)c2cccc(C(F)(F)F)c2)cc1 (mixture of isomers) [Metaflumizone]
LEL [1, 16]: 50 mg/kg/day | LOAEL [1, 16]: 50 mg/kg/day | NEL [1, 16]: 20 mg/kg/day | NOAEL [1, 16]: 20 mg/kg/day | LEL [1, 17]: 50 mg/kg/day | LOAEL [1, 17]: 50 mg/kg/day | NEL [1, 17]: 20 mg/kg/day | NOAEL [1, 17]: 20 mg/kg/day

Cc1cccc(N)c1N [2,3-Diaminotoluene]
LEL ([2]; group: developmental, developmental / developmental malformation / bone / [other] + developmental / developmental malformation / bone / incomplete ossification): 100 mg/kg/day | LOAEL [2, 18]: > 300 mg/kg/day | NEL [2, 18]: 30 mg/kg/day | NOAEL [2, 18]: ≥ 300 mg/kg/day | LEL [2, 19]: 300 mg/kg/day | LOAEL [2, 19]: > 300 mg/kg/day | NEL [2, 19]: 100 mg/kg/day | NOAEL [2, 19]: ≥ 300 mg/kg/day | LEL [3, 20]: 100 mg/kg/day | LOAEL [3, 20]: > 100 mg/kg/day | NEL [3, 20]: 30 mg/kg/day | NOAEL [3, 20]: ≥ 100 mg/kg/day | NEL ([3]; group: maternal, reproductive / reproductive performance / resorptions / resorptions + systemic / in life observation / body weight / body weight gain): 30 mg/kg/day | LEL [3, 21]: 100 mg/kg/day | LOAEL [3, 21]: > 100 mg/kg/day | NOAEL [3, 21]: ≥ 100 mg/kg/day

CC(C)CCCCCCCOC(=O)c1ccccc1C(=O)OCCCCCCCC(C)C [Diisodecyl phthalate]
LEL [4, 22]: 100 mg/kg/day | LOAEL [4, 22]: > 200 mg/kg/day | NEL [4, 22]: 30 mg/kg/day | NOAEL [4, 22]: ≥ 200 mg/kg/day | NEL ([4]; group: parental, systemic / organ weight / liver / absolute): 100 mg/kg/day | LEL [4, 23]: 200 mg/kg/day | LOAEL [4, 23]: > 200 mg/kg/day | NOAEL [4, 23]: ≥ 200 mg/kg/day | LEL [4, 24]: 100 mg/kg/day | LOAEL [4, 24]: > 200 mg/kg/day | NEL [4, 24]: 30 mg/kg/day | NOAEL [4, 24]: ≥ 200 mg/kg/day | LOAEL [5, 25]: > 400 mg/kg/day | NOAEL [5, 25]: ≥ 400 mg/kg/day | LEL [5, 26]: 100 mg/kg/day | NEL [5, 26]: < 100 mg/kg/day | LOAEL [5, 27]: > 400 mg/kg/day | NOAEL [5, 27]: ≥ 400 mg/kg/day | LEL [5, 28]: 100 mg/kg/day | NEL [5, 28]: < 100 mg/kg/day | LEL [5, 24]: 100 mg/kg/day | LOAEL [5, 24]: > 400 mg/kg/day | NEL [5, 24]: < 100 mg/kg/day | NOAEL [5, 24]: ≥ 400 mg/kg/day | LEL [6, 29]: 1000 mg/kg/day | LOAEL [6, 29]: > 1000 mg/kg/day | NEL [6, 29]: 500 mg/kg/day | NOAEL [6, 29]: ≥ 1000 mg/kg/day | LEL [6, 30]: 1000 mg/kg/day | LOAEL [6, 30]: > 1000 mg/kg/day | NEL [6, 30]: 500 mg/kg/day | NOAEL [6, 30]: ≥ 1000 mg/kg/day

C=CCOC(Cn1ccnc1)c1ccc(Cl)cc1Cl.O=S(=O)(O)O (configuration not stated) [Imazalil sulfate]
LEL [7, 31]: 20 mg/kg/day | LOAEL [7, 31]: > 20 mg/kg/day | NEL [7, 31]: 10 mg/kg/day | NOAEL [7, 31]: ≥ 20 mg/kg/day | LOAEL [7, 21]: 10 mg/kg/day | NOAEL [7, 21]: 5 mg/kg/day | LEL [7, 32]: 5 mg/kg/day | NEL [7, 32]: < 5 mg/kg/day | LEL [8, 20]: 80 mg/kg/day | LOAEL [8, 20]: 80 mg/kg/day | NEL [8, 20]: 40 mg/kg/day | NOAEL [8, 20]: 40 mg/kg/day | LOAEL [8, 33]: 40 mg/kg/day | NOAEL [8, 33]: < 40 mg/kg/day | LEL [8, 34]: 40 mg/kg/day | NEL [8, 34]: < 40 mg/kg/day

CCOC(=O)CC(SP(=O)(OC)OC)C(=O)OCC (configuration not stated) [Malaoxon]
LEL [9, 35]: 1 mg/kg/day | LOAEL [9, 35]: 1 mg/kg/day | NEL [9, 35]: < 1 mg/kg/day | NOAEL [9, 35]: < 1 mg/kg/day | LOAEL ([9]; group: systemic, systemic / pathology microscopic / stomach / mineralization): 57 mg/kg/day | NEL [9, 36]: 1 mg/kg/day | NOAEL [9, 36]: 1 mg/kg/day | LEL ([9]; group: systemic, systemic / pathology microscopic / stomach / mineralization + systemic / in life observation / food consumption / food consumption): 57 mg/kg/day

C=C(C)C(N)=O [Methacrylamide]
LEL [10, 20]: 120 mg/kg/day | LOAEL [10, 20]: > 180 mg/kg/day | NEL [10, 20]: 60 mg/kg/day | NOAEL [10, 20]: ≥ 180 mg/kg/day | LOAEL [10, 37]: > 180 mg/kg/day | NEL [10, 37]: 60 mg/kg/day | NOAEL [10, 37]: ≥ 180 mg/kg/day | LEL ([10]; group: maternal, systemic / organ weight / liver / relative to body weight): 120 mg/kg/day

C=CC(=O)NCNC(=O)C=C [N,N'-Methylenebisacrylamide]
LEL ([11]; group: developmental, developmental / developmental malformation / bone / supernumerary): 10 mg/kg/day | LOAEL [11, 38]: > 30 mg/kg/day | NEL [11, 38]: 3 mg/kg/day | NOAEL [11, 38]: ≥ 30 mg/kg/day | LOAEL [11, 39]: > 30 mg/kg/day | NEL [11, 39]: 3 mg/kg/day | NOAEL [11, 39]: ≥ 30 mg/kg/day | LEL ([11]; group: maternal, systemic / in life observation / body weight / body weight + systemic / organ weight / liver / relative to body weight + systemic / organ …): 10 mg/kg/day

CCN(CC)c1nc(C)cc(OP(=S)(OC)OC)n1 [Pirimiphos-methyl]
LEL [12, 40]: 8.3 mg/kg/day | LOAEL [12, 40]: 8.3 mg/kg/day | NEL [12, 40]: < 8.3 mg/kg/day | NOAEL [12, 40]: < 8.3 mg/kg/day | LEL [12, 41]: 33 mg/kg/day | LOAEL [12, 41]: 33 mg/kg/day | NEL [12, 41]: 8.3 mg/kg/day | NOAEL [12, 41]: 8.3 mg/kg/day

CS(=O)(=O)c1ccc(C(=O)C2C(=O)CCCC2=O)c(Cl)c1COCC(F)(F)F [Tembotrione]
LEL [13, 42]: 1.3 mg/kg/day | LOAEL [13, 42]: 1.3 mg/kg/day | NEL [13, 42]: < 1.3 mg/kg/day | NOAEL [13, 42]: < 1.3 mg/kg/day | LEL [13, 43]: 1.3 mg/kg/day | LOAEL [13, 43]: 1.3 mg/kg/day | NEL [13, 43]: < 1.3 mg/kg/day | NOAEL [13, 43]: < 1.3 mg/kg/day | LEL [13, 44]: 123 mg/kg/day | LOAEL [13, 44]: 123 mg/kg/day | NEL [13, 44]: 16.2 mg/kg/day | NOAEL [13, 44]: 16.2 mg/kg/day

CCN(CC)C(=O)SCc1ccc(Cl)cc1 [Thiobencarb]
LEL [14, 45]: 100 mg/kg/day | LOAEL [14, 45]: > 100 mg/kg/day | NEL [14, 45]: 20 mg/kg/day | NOAEL [14, 45]: ≥ 100 mg/kg/day | LEL [14, 46]: 2 mg/kg/day | NEL [14, 46]: < 2 mg/kg/day | LOAEL [14, 47]: 2 mg/kg/day | NOAEL [14, 47]: < 2 mg/kg/day | LEL [15, 48]: 150 mg/kg/day | LOAEL [15, 48]: 150 mg/kg/day | NEL [15, 48]: 25 mg/kg/day | NOAEL [15, 48]: 25 mg/kg/day | LEL [15, 49]: 150 mg/kg/day | LOAEL [15, 49]: 150 mg/kg/day | NEL [15, 49]: 25 mg/kg/day | NOAEL [15, 49]: 25 mg/kg/day
